According to PubChem BioAssay (NCI):
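96-well plates; 48 h exposure; 5 concentrations. Endpoints by linear interpolation between flanking doses. Not reached: highest tested concentration assigned. The concentration for full growth arrest is given as TGI.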

Legend:
Experiment in all cases: inhibition of tumour cell growth, NCI panel, 48 h
RXF-631 renal = tested on: RXF-631 renal
SNB-78 CNS = tested on: SNB-78 CNS
DMS 273 small cell lung = tested on: DMS 273 small cell lung
DLD-1 colon = tested on: DLD-1 colon
LXFL 529 NSCLC = tested on: LXFL 529 NSCLC
XF 498 CNS = tested on: XF 498 CNS
KM20L2 colon = tested on: KM20L2 colon
HOP-18 NSCLC = tested on: HOP-18 NSCLC
M19-MEL melanoma = tested on: M19-MEL melanoma
DMS 114 small cell lung = tested on: DMS 114 small cell lung

Compound: CC(=O)OC1COC(n2c(O)c(N=Nc3ccc([N+](=O)[O-])cc3)c3cc(Br)c([N+](=O)[O-])cc32)C(OC(C)=O)C1OC(C)=O (stereo not given)
- TGI (RXF-631 renal): > 100 µM
- TGI (SNB-78 CNS): 75.8 µM
- TGI (DMS 273 small cell lung): > 100 µM
- TGI (DLD-1 colon): > 100 µM
- TGI (LXFL 529 NSCLC): > 100 µM
- TGI (XF 498 CNS): > 100 µM
- TGI (KM20L2 colon): > 100 µM
- TGI (HOP-18 NSCLC): > 100 µM
- TGI (M19-MEL melanoma): > 100 µM

Compound: CCOc1ccccc1NC(=O)CSc1nnc(Cc2ccccc2)o1
- TGI (SNB-78 CNS): > 100 µM
- TGI (DMS 273 small cell lung): 60.2 µM
- TGI (DLD-1 colon): 55.4 µM
- TGI (LXFL 529 NSCLC): 32.1 µM
- TGI (KM20L2 colon): > 100 µM
- TGI (HOP-18 NSCLC): 54.7 µM
- TGI (M19-MEL melanoma): > 100 µM
- TGI (DMS 114 small cell lung): 32.4 µM

Compound: Cc1cc(N(CCC#N)CCC#N)ccc1/C=C(\NC(=O)/C=C/c1ccccc1)NC(=O)Nc1ccccc1C
- TGI (RXF-631 renal): > 100 µM
- TGI (SNB-78 CNS): > 100 µM
- TGI (DMS 273 small cell lung): > 100 µM
- TGI (DLD-1 colon): > 100 µM
- TGI (LXFL 529 NSCLC): > 100 µM
- TGI (KM20L2 colon): > 100 µM
- TGI (M19-MEL melanoma): > 100 µM
- TGI (DMS 114 small cell lung): > 100 µM

Compound: CCN1C(=O)/C(=C\c2coc3ccccc3c2=O)SC1=S
- TGI (SNB-78 CNS): > 100 µM
- TGI (DMS 273 small cell lung): > 100 µM
- TGI (DLD-1 colon): > 100 µM
- TGI (LXFL 529 NSCLC): > 100 µM
- TGI (XF 498 CNS): > 100 µM
- TGI (KM20L2 colon): > 100 µM
- TGI (HOP-18 NSCLC): > 100 µM
- TGI (M19-MEL melanoma): > 100 µM
- TGI (DMS 114 small cell lung): > 100 µM

Compound: CN(C)CCNC(=O)c1ccccc1Nc1c(Cl)cccc1Cl
- TGI (SNB-78 CNS): 33.8 µM
- TGI (DMS 273 small cell lung): 30.5 µM
- TGI (DLD-1 colon): 37.1 µM
- TGI (LXFL 529 NSCLC): 32.4 µM
- TGI (XF 498 CNS): 22 µM
- TGI (KM20L2 colon): 23.4 µM
- TGI (M19-MEL melanoma): 24.5 µM

Compound: CC(C)NC1CCCCC2c3cc(F)ccc3[C@]12O (stereo not given in full)
- TGI (SNB-78 CNS): > 100 µM
- TGI (DMS 273 small cell lung): > 100 µM
- TGI (DLD-1 colon): > 100 µM
- TGI (LXFL 529 NSCLC): > 100 µM
- TGI (KM20L2 colon): > 100 µM
- TGI (HOP-18 NSCLC): > 100 µM
- TGI (M19-MEL melanoma): > 100 µM
- TGI (DMS 114 small cell lung): > 100 µM

Compound: CC1(OCc2ccccc2)C(=O)N2C1N(C(=O)OCc1ccccc1)CC2(C)C (stereo not given)
- TGI (DMS 273 small cell lung): > 100 µM
- TGI (DLD-1 colon): > 100 µM
- TGI (LXFL 529 NSCLC): > 100 µM
- TGI (XF 498 CNS): 75 µM
- TGI (KM20L2 colon): > 100 µM
- TGI (M19-MEL melanoma): > 100 µM
- TGI (DMS 114 small cell lung): > 100 µM

Compound: CC(/C=C/c1ccccc1)=N\N=C(C)\C=C\c1ccccc1
- TGI (SNB-78 CNS): > 100 µM
- TGI (DMS 273 small cell lung): > 100 µM
- TGI (DLD-1 colon): > 100 µM
- TGI (LXFL 529 NSCLC): > 100 µM
- TGI (XF 498 CNS): > 100 µM
- TGI (KM20L2 colon): > 100 µM
- TGI (M19-MEL melanoma): > 100 µM

Compound: COc1ccc2c(c1)CC[C@@H]1C2CC[C@]2(C)C(=N\O)/C(=N/O)CC12 (stereo not given in full)
- TGI (SNB-78 CNS): 47.5 µM
- TGI (DMS 273 small cell lung): 26.7 µM
- TGI (DLD-1 colon): 36.6 µM
- TGI (LXFL 529 NSCLC): 26.8 µM
- TGI (XF 498 CNS): 29.6 µM
- TGI (KM20L2 colon): 18.5 µM
- TGI (HOP-18 NSCLC): 30.4 µM
- TGI (M19-MEL melanoma): 37 µM

Compound: Cc1ccc([N+]2=NC(c3ccc([N+](=O)[O-])cc3)=NN(c3ccccc3)C2)cc1
- TGI (SNB-78 CNS): > 100 µM
- TGI (DMS 273 small cell lung): > 100 µM
- TGI (DLD-1 colon): > 100 µM
- TGI (LXFL 529 NSCLC): > 100 µM
- TGI (XF 498 CNS): > 100 µM
- TGI (KM20L2 colon): > 100 µM
- TGI (M19-MEL melanoma): > 100 µM
- TGI (DMS 114 small cell lung): > 100 µM

Compound: CCOc1ccc(NC(=O)/C(Cc2nc3ccccc3[nH]c2=O)=N\O)cc1
- TGI (SNB-78 CNS): > 100 µM
- TGI (DMS 273 small cell lung): > 100 µM
- TGI (DLD-1 colon): > 100 µM
- TGI (LXFL 529 NSCLC): > 100 µM
- TGI (KM20L2 colon): > 100 µM
- TGI (M19-MEL melanoma): > 100 µM
- TGI (DMS 114 small cell lung): > 100 µM

Compound: C/C(=N\N)C(CN1CCCCC1)C(c1ccccc1)c1c(O)c2ccccc2oc1=O (stereo not given)
- TGI (RXF-631 renal): > 100 µM
- TGI (SNB-78 CNS): > 100 µM
- TGI (DMS 273 small cell lung): > 100 µM
- TGI (DLD-1 colon): > 100 µM
- TGI (LXFL 529 NSCLC): > 100 µM
- TGI (XF 498 CNS): > 100 µM
- TGI (KM20L2 colon): > 100 µM
- TGI (M19-MEL melanoma): > 100 µM
- TGI (DMS 114 small cell lung): > 100 µM
